Values quoted from earlier work in PMC5618191 (Toxins, 2017).

Set-up: method as in PMID 26892719
Details: after three days of treatment; cited from earlier work

In the case of CC(C)[C@H]1C(=O)O[C@H](C(C)C)C(=O)N(C)[C@@H](C(C)C)C(=O)O[C@H](C(C)C)C(=O)N(C)[C@@H](C(C)C)C(=O)O[C@H](C(C)C)C(=O)N1C [ENN B, enniatin B], the Metabolites in mice is given as “three phase I metabolites”.
